The record followed here is patent US20030087830A1, “Low molecular weight components of cartilage, complexes of metals with amino acids, DI-peptides and analogs thereof; processes for preparation and therapeutic uses thereof” (priority 2001, published 2003).

In data set [1] the test system is Endothelial cells (HUVEC, BAEC). Description: Endothelial cell proliferation. It counts as cell-based, human / bovine. As to conditions: for EC50: 48 hours, copper equivalent, NA = less than 50% at 1.25 mM copper equivalent, read-out: EC proliferation (EC50 mM). The method, then: Endothelial and tumor cell proliferation assays were performed to determine the ability of test samples to inhibit endothelial cell proliferation (antiangiogenic activity), normal cell proliferation,and tumor cell proliferation.
Endothelial cells (Human umbilical vein endothelial cells (HUVEC), bovine aortic endothelial cells (BAEC)), skeletal muscle cells, human dermal fibroblasts (all from Clonetics, Walkersville, Md.) were respectively maintained in EBM-2, MDEM, SKGM and FGFM-2 complete media according to manufacturer's instructions. Tumor rat glioblastoma cell line (C6) was maintained in DMEM (Sigma, Oaksville, Ontario) supplemented with 10% fetal calf serum (FCS) and antibiotics in 5% CO2. Briefly, cells seeded in 96-well sterile tissue culture dishes were treated with increasing concentrations of different test samples for a period of 48 hours at 37° C. Cell number was then evaluated by a calorimetric assay using the cell proliferation reagent tetrazolium salt and the fluorimetric assay using DNA dye (Hoescht) according to the procedure established by the manufacturer (Boehringer Mannhein). The conversion of these tetrazolium salts into formazan occurs only in metabolically active cells. The percentage of cell inhibition was determined by comparison to untreated cells.
(§1) According to the endothelial cell proliferation assay, the relative effectiveness of two compounds is compared by reference to the EC50 thereof. The EC50 is the concentration of compound at which the number of endothelial cells is reduced by 50% as compared to control. The efficacy of the test samples in EVT is established by the percent of eggs with altered angiogenesis at a given inhibitor dose of 0.6 mg of copper equivalent (see FIG. 6 for examples). A comparison of the antiangiogenic activity of the compounds of the present invention with divalent metal salts (CuCl2, MgCl2, ZnCl2, CoCl2) and uncoupled alpha-amino acids, alpha-imino acids, dipeptides, and nitrogenated molecules comprising a carboxylic acid group, such as creatine, is provided to illustrate that the formation of the amino acid-copper complex gives rise to complexes having antiangiogenic activity.

The subject of data set [2] is blood vessel formation in the vitelline membrane of chick embryo. Description: Embryonic Vascularization Test (EVT). It counts as in vivo. The following applies: for EVT (% of inhibition): activity at 0.6 mg equivalent Copper; for EVT activity (in words): in vivo. As for the experimental part: The Embryonic Vascularization Test (EVT) was performed to determine the ability of test samples to inhibit the formation of new blood vessels (antiangiogenic activity).
The normal development of a chick embryo involves the formation of an external vascular system located in the vitelline membrane which carries nutrients from the vitellus (yolk) to the developing embryo. When placed onto the vitelline membrane, antiangiogenic substances can inhibit the blood vessel formation that occurs in the vitelline membrane. Briefly, methylcellulose discs (an inert solid and transparent matrix) containing different test samples were placed on the external border of the vascular perimeter of the vitelline membrane, where the angiogenic process occurs. Vascularization was assessed 24 hours after disc deposition, and results were expressed as the percent of embryos in which blood vessel formation was affected. The blood vessel formation was considered affected when its growing path was either deviated, or diminished or when there was no growth observed beyond the disc as compared to the negative control. The results are expressed as 0, +, and ++ where 0 is for a lower response than 25 percent of the eggs; + is for a response between 25 and 50 percent; and ++ is for an antiangiogenic response observed in more than 50 percent of the eggs.
as §1

The nature of data set [3]: Affinity of the amino acid with copper. Type of data set: physicochemical.
The test system of a further data set is Endothelial cells. The data set can be described thus: Endothelial cell tubule formation assay (tubulogenesis). As to conditions: 2.5 mM free (not complexed) ligand. Also noted: key to Tubulogenesis: 0: Numerous capillary-like tube forming pentagonal network; +: Decrease of capillary-like tubes; ++: Dramatic decrease of capillary-like tubes; +++: Absence of capillary-like tubes. It counts as cell-based. As for the experimental part:
The endothelial cell tubule formation assay is a semi-quantitative assay that was performed to determine the ability of test samples to inhibit this multi-step process, which involves cell adhesion, migration, differentiation and growth, using a commercial kit (Chemicon). Briefly, endothelial cells were seeded on solid gel of Ecmatrix™ (Chemicon), basement proteins prepared from the Engelbreth Holm-Swarm (EHS) mouse tumor in microplate in a E-99 media (Sigma) supplemented with 5% FBS and VEGF (50 ng/ml) in the presence or absence of the test sample. Cells were incubated for a period of 24 hours at 37° C. Pictures were taken on the entire tissue culture dish using a binocular microscope for further evaluation.

Data set [4] concerns bFGF-stimulated blood vessel formation in Matrigel. The data set can be described thus: Matrigel in vivo angiogenesis assay. The following applies: intra-peritoneal daily 10 days. Also on record: species or system C57B1/6 mice. As for the experimental part:
The Matrigel™ in vivo assay was performed to determine the ability of test samples to inhibit blood vessel formation (antiangiogenic activity) and to establish their bioavailability in vivo.
Briefly, liquid Matrigel™ (Becton Dickinson, Bedford, Mass.) was maintained at 4° C. and mixed thoroughly for at least 3 hours with 1,500 ng/ml basic fibroblast growth factor (bFGF) (R&D Systems, Minneapolis, Minn.) used as the primary angiogenic stimulus. The mixture (0.5 ml) was injected subcutaneously into the ventral midline of C57B1/6 mice, and treatment with different test samples or saline solution was initiated the same day. Additional animals were also injected with Matrigel™ containing no bFGF to serve as baseline controls. The animals were treated daily for a 10 day period (intra-peritonealy, 0.2 ml of each dose). At day 11, animals were injected with FITC-dextran 20 min prior to euthanizing treated mice. Matrigel™ gels were removed along with underlying peritoneum and prepared for FITC-dextran detection by fluorimetry. The concentration of FITC-dextran in the gels was calculated from a known concentration of FITC-dextran using a standard curve. The FITC-dextran content of the gels from compound-treated animals and controls was expressed as a percent of the positive bFGF-treated controls after the baseline control of FITC-dextran levels were subtracted from all groups.

In the case of `[Cl-].[Cl-].[Co+2]` [Co++, reference compound], the EC50 in data set [1] was 0.27 mM.

For the compound `NCC(=O)[O-].NCC(=O)[O-].[Cu+2]` [Compound 1, Gly:Cu:GIy], the EC50 in data set [1] is 0.27 mM. The “EVT (% of inhibition)” value in data set [2] is given as “++ (++ more than 50% of inhibition)”. Besides, in data set [3], the “Affinity of the AA with Cooper” value came out at 16.0. Take `C[C@H](N)C(=O)[O-].C[C@H](N)C(=O)[O-].[Cu+2]` [Compound 2, L-Ala:Cu:L-Ala]: in data set [1], the EC50 stood at 0.28 mM. Moreover, the “EVT (% of inhibition)” value in data set [2] is reported as “++ (++ more than 50% of inhibition)”. Besides, the “Affinity of the AA with Cooper” value in data set [3] is 15.9. Regarding `N[C@@H](CO)C(=O)[O-].N[C@@H](CO)C(=O)[O-].[Cu+2]` [Compound 3, L-Ser:Cu:L-Ser], the EC50 in data set [1] was found to be 0.34 mM. In data set [2], the “EVT (% of inhibition)” value was 0 (0 non-active (less than 25% of inhibition)) and the “EVT activity (in words)” value is “inactive”. The “Affinity of the AA with Cooper” value in data set [3] came out at 15.4.

With `CC(C)C(N)C(=O)[O-].CC(C)C(N)C(=O)[O-].[Cu+2]` [Compound 4, L-Val:Cu:L-Val], in data set [1], the EC50 is 0.35 mM. In addition, the “EVT (% of inhibition)” value in data set [2] was “+ (+ between 25-50% of inhibition)”. Moreover, the “Affinity of the AA with Cooper” value in data set [3] is 15.2. For the compound `N=C(N)NCCC[C@H](N)C(=O)[O-].N=C(N)NCCC[C@H](N)C(=O)[O-].[Cu+2]` [Compound 8, L-Arg:Cu:L-Arg], the EC50 in data set [1] was 0.32 mM. Besides, the “EVT (% of inhibition)” value in data set [2] is reported as “+ (+ between 25-50% of inhibition)”. For the same compound, the “Affinity of the AA with Cooper” value in data set [3] amounted to 14.9. With `NCCCC[C@H](N)C(=O)[O-].NCCCC[C@H](N)C(=O)[O-].[Cu+2]` [Compound 9, L-Lys:Cu:L-Lys], the EC50 in data set [1] was 0.35 mM. Besides, the “EVT (% of inhibition)” value in data set [2] is on record as “++ (++ more than 50% of inhibition)”. In data set [3], the “Affinity of the AA with Cooper” value worked out at 14.4. With `NC(=O)CC[C@H](N)C(=O)[O-].NC(=O)CC[C@H](N)C(=O)[O-].[Cu+2]` [Compound 11, L-Gln:Cu:L-Gln], the EC50 in data set [1] came to 0.76 mM. Further, the “EVT (% of inhibition)” value in data set [2] is 0 (0 non-active (less than 25% of inhibition)). Moreover, in data set [3], the “Affinity of the AA with Cooper” value was found to be 15.5.

In the case of `CC[C@H](C)[C@H](N)C(=O)[O-].CC[C@H](C)[C@H](N)C(=O)[O-].[Cu+2]` [Compound 12, L-Ile:Cu:L-IIe], in data set [1], the EC50 is 0.48 mM. Also, the “Affinity of the AA with Cooper” value in data set [3] came to 16.6. As to `CC(N)C(=O)[O-].CC(N)C(=O)[O-].[Cu+2]` [Compound 13, D-Ala:Cu:D-Ala], in data set [1], the “Endothelial cell proliferation activity (in words)” value is on record as “active” and the EC50 is 0.44 mM. Take `CC(O)C(N)C(=O)[O-].CC(O)C(N)C(=O)[O-].[Cu+2]` [Compound 16, D-Thr:Cu:D-Thr]: in data set [1], the “Endothelial cell proliferation activity (in words)” value was “active” and the EC50 came to 0.3 mM. The “EVT activity (in words)” value in data set [2] is recorded as “active”. Take `N[C@H](Cc1c[nH]cn1)C(=O)[O-].N[C@H](Cc1c[nH]cn1)C(=O)[O-].[Cu+2]` [Compound 17, D-His:Cu:D-His]: the “Endothelial cell proliferation activity (in words)” value in data set [1] is “inactive”. Also, the “EVT activity (in words)” value in data set [2] was “inactive”. With `C[C@H](N)C(=O)O.N[C@@H](CCC(=O)[O-])C(=O)[O-].[Cu+2]` [Compound 20, L-Ala:Cu:L-Glu], the EC50 in data set [1] is 0.28 mM. Take `C[C@@H](O)[C@H](N)C(=O)[O-].N[C@@H](CC(=O)O)C(=O)[O-].[Cu+2]` [Compound 25, L-Asp:Cu:L-Thr]: the EC50 in data set [1] was 0.29 mM. `O=C([O-])[C@@H]1CCCN1.O=C([O-])[C@@H]1CCCN1.[Cu+2]` [Compound 28, L-Pro:Cu:L-Pro]: in data set [1], the “Endothelial cell proliferation activity (in words)” value is “active complex” and the EC50 was 0.28 mM. The “Affinity of the AA with Cooper” value in data set [3] was determined as 17.6.

`N[C@@H](CC(=O)O)C(=O)O` [Free Asp, aspartic acid, reference compound] showed a Tubulogenesis in the data set with Endothelial cells of 0. Turning to `N[C@@H](Cc1c[nH]cn1)C(=O)O` [Free His, histidine, reference compound], the Tubulogenesis in the data set on Endothelial cells was determined as 0. The same measure, in the same setting: to `C[C@@H](O)[C@H](N)C(=O)O` [Free Thr, threonine, reference compound] belongs 0. Consider `[Cl-].[Cl-].[Zn+2]` [Zn++, reference compound], for which the EC50 in data set [1] is 0.19 mM. (Creatine)2-Cu [Compound 34]: in data set [1], the “Endothelial cell proliferation activity (in words)” value is “excellent activity” and the EC50 was 0.28 mM. On to D-Asp:Cu:D-Asp [Compound 14], for which, in data set [1], the “Endothelial cell proliferation activity (in words)” value was “active” and the EC50 turned out to be 0.37 mM. On to D-Glu:Cu:D-GIu [Compound 15], for which, in data set [1], the “Endothelial cell proliferation activity (in words)” value is given as “active” and the EC50 came out at 0.35 mM. As to Gly:Cu:L-Asp [Compound 22], in data set [1], the EC50 is 0.41 mM.

Turning to Gly:Cu:L-Glu [Compound 24], the EC50 in data set [1] was 0.33 mM. As for Gly:Cu:L-Thr [Compound 23], the EC50 in data set [1] stood at 0.48 mM. The same measure, in the same setting: the value for L-AIa:Cu:L-Asp [Compound 21] was 0.32 mM. L-Ala:Cu:Gly [Compound 18]: in data set [1], the EC50 was determined as 0.29 mM.

Turning to L-Ala:Cu:L-Thr [Compound 19], the EC50 in data set [1] was 0.36 mM.

On to L-Asp-Co-L-Asp [Compound 30], for which the EC50 in data set [1] worked out at 0.27 mM. The same measure, in the same setting: to L-Asp-Zn-L-Asp [Compound 32] belongs 0.18 mM; to L-Asp:Cu:L-Glu [Compound 26], 0.25 mM. Consider L-Glu:Cu:L-Glu [Compound 7], for which the EC50 in data set [1] came to 0.35 mM. Also, in data set [2], the “EVT (% of inhibition)” value is “++ (++ more than 50% of inhibition)”. For the same compound, the “Matrigel in vivo % inhibition” value in data set [4] (1.4 mg/Kg equivalent copper) came out at 42.6%; in data set [4] (7.0 mg/Kg equivalent copper), 71.2%. With L-Glu:Cu:L-Thr [Compound 27], the EC50 in data set [1] is 0.4 mM.
